The source of these data is ChEMBL document CHEMBL5346971, “Discovery of the First Irreversible HDAC6 Isoform Selective Inhibitor with Potent Anti-Multiple Myeloma Activity” (J Med Chem, 2023).

Data set [1] can be described thus: Toxicity in NCG mouse xenografted with human RPMI-8226 cells assessed as body weight loss at 50 ug administered intratumorally every 2 days. As to conditions: in vivo, other, 48 h, route it(Intratumoral), dose 50 µg.
The subject of data set [2] is RPMI-8226. Put plainly: Induction of apoptosis in human RPMI-8226 cells assessed as proportion of viable cells at 2.5 uM incubated for 24 hrs by AnnexinV-FITC/PI staining based flow cytometry (reference value: 84.71%). The format is functional, cell-based. Background: In flow cytometry, cells or beads pass a laser one at a time.
For data set [3], the system named is RPMI-8226. Nature of the data set: Induction of apoptosis in human RPMI-8226 cells assessed as proportion of late apoptotic cells at 2.5 uM incubated for 24 hrs by AnnexinV-FITC/PI staining based flow cytometry (reference value: 4.18%). Type of data set: functional, cell-based.
For data set [4], the system named is RPMI-8226. Put plainly: Induction of apoptosis in human RPMI-8226 cells assessed as proportion of necrotic cells at 2.5 uM incubated for 24 hrs by AnnexinV-FITC/PI staining based flow cytometry (reference value: 0.49%). The format is functional, cell-based.
Data set [5] deals with RPMI-8226. Nature of the data set: Induction of apoptosis in human RPMI-8226 cells assessed as proportion of early apoptotic cells at 2.5 uM incubated for 24 hrs by AnnexinV-FITC/PI staining based flow cytometry (reference value: 10.63%). The format is functional, cell-based.
Data set [6] deals with RPMI-8226. Put plainly: Induction of cell cycle arrest in human RPMI-8226 cells assessed as proportion of cells at G2/M phase at 2.5 uM incubated for 24 hrs by PI staining based flow cytometry (reference value: 19.8%). The format is functional.
For data set [7], the system named is RPMI-8226. Put plainly: Induction of apoptosis in human RPMI-8226 cells assessed as proportion of early apoptotic cells at 0.5 uM incubated for 24 hrs by AnnexinV-FITC/PI staining based flow cytometry (reference value: 10.63%). The format is functional, cell-based.
Data set [8] can be described thus: Toxicity in NCG mouse xenografted with human RPMI-8226 cells assessed as animal's death at 50 ug administered intratumorally every 2 days. As to conditions: in vivo, other, 48 h, route it(Intratumoral), dose 50 µg. Background: Xenograft models place foreign cells or tissue in a host animal.
Data set [9] concerns RPMI-8226. Put plainly: Antitumor activity against human RPMI-8226 cells xenografted in NCG mouse assessed as T/C ratio at 50 ug administered intratumorally every 2 days by vernier caliper analysis. The format is functional. As to conditions: dose 50 µg; route it(Intratumoral).
Data set [10] is described as follows: Cytotoxicity against human L02 cells assessed as inhibition of cell proliferation incubated for 48 hrs by CCK8 assay. The format is toxicity, cell-based. (Tetrazolium dyes change colour on reduction, which living cells bring about.)
Data set [11] has as its system RPMI-8226. Put plainly: Induction of cell cycle arrest in human RPMI-8226 cells assessed as proportion of cells at S phase at 2.5 uM incubated for 24 hrs by PI staining based flow cytometry (reference value: 46.7%). The format is functional.
Data set [12] can be described thus: Toxicity in NCG mouse xenografted with human RPMI-8226 cells assessed as weakness at 50 ug administered intratumorally every 2 days. Conditions: in vivo, other, 48 h, route it(Intratumoral), dose 50 µg.
Data set [13] deals with RPMI-8226. Put plainly: Induction of cell cycle arrest in human RPMI-8226 cells assessed as proportion of cells at G1 phase at 2.5 uM incubated for 24 hrs by PI staining based flow cytometry (reference value: 33.5%). Type of data set: functional.
For a further data set, the system named is U-266. Nature of the data set: Antiproliferative activity against human U-266 cells assessed as inhibition of cell proliferation incubated for 48 hrs by CCK8 assay. Conditions: U-266, 48 h. Type of data set: functional, cell-based.
The test system of data set [14] is RPMI-8226. Put plainly: Antiproliferative activity against human RPMI-8226 cells assessed as inhibition of cell proliferation incubated for 48 hrs by CCK8 assay. Conditions: RPMI-8226, 48 h. The format is functional, cell-based.
In the next data set the test system is MM1.S. Put plainly: Antiproliferative activity against human MM1.S cells assessed as inhibition of cell proliferation incubated for 48 hrs by CCK8 assay. The format is functional, cell-based.
In data set [15] the test system is RPMI-8226. Put plainly: Induction of apoptosis in human RPMI-8226 cells assessed as proportion of viable cells at 0.5 uM incubated for 24 hrs by AnnexinV-FITC/PI staining based flow cytometry (reference value: 84.71%). Type of data set: functional, cell-based.
Data set [16] has as its system RPMI-8226. Nature of the data set: Antitumor activity against human RPMI-8226 cells xenografted in NCG mouse assessed as tumor growth inhibition at 50 ug administered intratumorally every 2 days by vernier caliper analysis. The format is functional. Conditions: dose 50 µg; route it(Intratumoral).
The subject of data set [17] is RPMI-8226. Nature of the data set: Induction of apoptosis in human RPMI-8226 cells assessed as proportion of late apoptotic cells at 0.5 uM incubated for 24 hrs by AnnexinV-FITC/PI staining based flow cytometry (reference value: 4.18%). The format is functional, cell-based.
Data set [18] has as its system RPMI-8226. Put plainly: Induction of apoptosis in human RPMI-8226 cells assessed as proportion of necrotic cells at 0.5 uM incubated for 24 hrs by AnnexinV-FITC/PI staining based flow cytometry (reference value: 0.49%). The format is functional, cell-based.

Calls of active or inactive are those of the source. No cut-off for these calls is given here.

As a reminder, the T/C is the result in the treated group divided by that in the control group, in per cent. What is called IC50 is the concentration that inhibits the measured activity by half. The term TGI denotes how far tumour growth fell short of that in controls. In the case of `O=C(CCCCCCNC(=O)c1cnc(N(c2ccccc2)c2ccccc2Cl)nc1)NO` [CITARINOSTAT], the Activity entry in data set [1] is given as “Non-Toxic”; with RPMI-8226 [6], 22.6%; in data set [8] it was “Toxic”; in the data set on RPMI-8226 [11] it was 44.7%; in data set [12], “Toxic”; with RPMI-8226 [13] it was 32.7%. Also, the outcome in the data set with RPMI-8226 [2], in the data set with RPMI-8226 [3], with RPMI-8226 [4], in the data set with RPMI-8226 [5], in the data set with RPMI-8226 [7] and with RPMI-8226 [15] was Active. Also, the outcome in the data set on RPMI-8226 [17] and with RPMI-8226 [18] was Active. Further, in the data set on RPMI-8226 [9], the T/C is reported as 61%. Also, in data set [10], the IC50 at 48 h was 15.2 µM. Further, the IC50 with U-266 was 4.3 µM; in the data set with RPMI-8226 [14], 3.5 µM; in the data set with MM1.S, 2 µM. In addition, the TGI in the data set with RPMI-8226 [16] was 46%.
